Test systems include P388 leukemia; XF 498 CNS; DMS 273 small cell lung; HOP-18 NSCLC; SN12K1 renal; P388/ADR leukemia; LXFL 529 NSCLC; RXF-631 renal.
Test in all cases: NCI tumour cell line growth inhibition, 48 h

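Protocol summary: plate cells (96-well), add compound at 5 concentrations, incubate 48 h, interpolate endpoints linearly. TGI denotes the concentration required for complete inhibition of growth.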 Bounds are passed on as bounds.

For the compound `COc1c2ccoc2c(S(=O)(=O)Nc2ccc(Cl)cc2)c2oc(C)cc(=O)c12`, the TGI with P388 leukemia, in the assay on XF 498 CNS, with DMS 273 small cell lung, with HOP-18 NSCLC, in the assay with SN12K1 renal and in the assay with P388/ADR leukemia was over 100 µM each time.

Take `O=C(/N=C/c1c(O)c2ccccc2oc1=O)NC1CCCCC1`: the TGI in the assay with XF 498 CNS is 93 µM; with DMS 273 small cell lung, over 100 µM; with LXFL 529 NSCLC, over 100 µM.

For the compound `CCCC(=O)OCC(O)CO` (stereo not drawn), the TGI in the assay with DMS 273 small cell lung, with HOP-18 NSCLC and in the assay on LXFL 529 NSCLC was over 5000 µM in each case.

For `CS(=O)(=O)OCc1c(O)c2c(c(O)c1COS(C)(=O)=O)C(=O)C=CC2=O`, the TGI in the assay with RXF-631 renal, in the assay with DMS 273 small cell lung, in the assay on HOP-18 NSCLC and in the assay with LXFL 529 NSCLC was over 100 µM in each case.

Consider `C=C1C(=O)OC2/C=C(\C)CC(O)/C=C(/CO)CC(OC(=O)/C(C)=C/C)C12` (stereo not drawn), for which the TGI with P388 leukemia came out at 113 µM; in the assay with XF 498 CNS, 37.2 µM; with DMS 273 small cell lung, 82.5 µM; in the assay with HOP-18 NSCLC, 49.7 µM; in the assay on SN12K1 renal, 76.6 µM; in the assay on P388/ADR leukemia, 240 µM.

For the compound `CC(C)Cc1cccc(C(C)C)c1NC(=O)CCC(=O)N/N=C1\C(=N/NC(=O)CCC(=O)Nc2c(C(C)C)cccc2C(C)C)C(c2ccc3c(c2)OCO3)Oc2ccccc21` (stereo not drawn), the TGI in the assay on XF 498 CNS, in the assay with DMS 273 small cell lung and in the assay with LXFL 529 NSCLC was over 100 µM each time.

With `FC(F)(F)C1=NC(=NNc2nnc(-c3ccccc3)c(-c3ccccc3)n2)N=C(C(F)(F)F)C1`, the TGI in the assay on P388 leukemia is over 47.5 µM; with XF 498 CNS, over 88.5 µM; in the assay with DMS 273 small cell lung it was over 100 µM; with HOP-18 NSCLC, over 100 µM; with SN12K1 renal, over 100 µM; with P388/ADR leukemia it was over 100 µM.

Take `C[C@H](O)C(=O)SC[C@H](NC(=O)CC[C@@H](N)C(=O)O)C(=O)NCC(=O)O`: the TGI with DMS 273 small cell lung and in the assay with LXFL 529 NSCLC was over 100 µM each time.

The values above are taken from PubChem BioAssay (NCI).
